Values of other authors as cited in patent US20090202995A1, “MOLECULAR CARDIOTOXICOLOGY MODELING” (priority 2005, published 2009).
Like-named read-outs stand apart in the source and are kept apart here.

Key:
heart tissue [1] = settings: known designation used to train the model, at the dose, time and route of Table 3
heart tissue [2] = system: heart tissue
heart tissue [3] = system: heart tissue; remark: listed apart in the source
heart tissue [4] = system: heart tissue; remark: listed apart in the source
heart tissue [5] = settings: known designation used to train the model, at the dose, time and route of Table 3; remark: listed apart in the source
heart tissue [6] = settings: known designation used to train the model, at the dose, time and route of Table 3; remark: listed apart in the source
[7] = known tox (1) / non-tox (−1) designation used to train the model, at the dose, time and route of Table 3
[8] = known designation used to train the model, at the dose, time and route of Table 3

In the case of Nc1nc2c(ncn2COCCO)c(=O)[nH]1 [Acyclovir], the “Vasculature Agent” value (heart tissue [1]) is given as −1, the General (heart tissue [2]; [7]) is given as −1 and the Arrhythmia (heart tissue [3]; [8]) is given as −1. For the same compound, the “Myocardial Necrosis” value (heart tissue [4]; [8]) was −1, the “Heart Failure” value (heart tissue [5]) was −1 and the “Andrenergic Agonist” value (heart tissue [6]) was −1.
For COc1cccc2c1C(=O)c1c(O)c3c(c(O)c1C2=O)C[C@@](O)(C(=O)CO)C[C@@H]3O[C@H]1C[C@H](N)[C@H](O)[C@H](C)O1 [Adriamycin], the “Vasculature Agent” value (heart tissue [1]) is listed as −1, the General (heart tissue [2]; [7]) is listed as 1 and the Arrhythmia (heart tissue [3]; [8]) is listed as −1. The “Myocardial Necrosis” value (heart tissue [4]; [8]) was 1, the “Heart Failure” value (heart tissue [5]) was 1 and the “Andrenergic Agonist” value (heart tissue [6]) was −1.
In the case of ClC(Cl)(Cl)Cl [CCl4], the “Vasculature Agent” value (heart tissue [1]) is listed as −1, the General (heart tissue [2]; [7]) is listed as −1 and the Arrhythmia (heart tissue [3]; [8]) is listed as −1. The “Myocardial Necrosis” value (heart tissue [4]; [8]) was −1, the “Heart Failure” value (heart tissue [5]) was −1 and the “Andrenergic Agonist” value (heart tissue [6]) was −1.
For N.N.O=C([O-])C1(C(=O)[O-])CCC1.[Pt+2] [Carboplatin], the “Vasculature Agent” value (heart tissue [1]) is given as −1, the General (heart tissue [2]; [7]) is given as −1 and the Arrhythmia (heart tissue [3]; [8]) is given as −1. The “Myocardial Necrosis” value (heart tissue [4]; [8]) was −1, the “Heart Failure” value (heart tissue [5]) was −1 and the “Andrenergic Agonist” value (heart tissue [6]) was −1.
For N.N.[Cl][Pt][Cl] [Cisplatin], the “Vasculature Agent” value (heart tissue [1]) is listed as −1, the General (heart tissue [2]; [7]) is listed as 1 and the Arrhythmia (heart tissue [3]; [8]) is listed as 1. The “Myocardial Necrosis” value (heart tissue [4]; [8]) was 1, the “Heart Failure” value (heart tissue [5]) was −1 and the “Andrenergic Agonist” value (heart tissue [6]) was −1.
In the case of CC(C)(C)NCC(O)c1cc(Cl)c(N)c(Cl)c1 (stereo not shown) [Clenbuterol], the “Vasculature Agent” value (heart tissue [1]) is listed as 1, the General (heart tissue [2]; [7]) is listed as 1 and the Arrhythmia (heart tissue [3]; [8]) is listed as 1. The “Myocardial Necrosis” value (heart tissue [4]; [8]) was 1 and the “Andrenergic Agonist” value (heart tissue [6]) was 1.
For O=P1(N(CCCl)CCCl)NCCCO1 (stereo not shown) [Cyclophosphamide], the “Vasculature Agent” value (heart tissue [1]) is given as −1, the General (heart tissue [2]; [7]) is given as 1 and the Arrhythmia (heart tissue [3]; [8]) is given as −1. For the same compound, the “Myocardial Necrosis” value (heart tissue [4]; [8]) was −1, the “Heart Failure” value (heart tissue [5]) was 1 and the “Andrenergic Agonist” value (heart tissue [6]) was −1.
For O=C1CN(/N=C/c2ccc(-c3ccc([N+](=O)[O-])cc3)o2)C(O)=N1 [Dantrolene], the General (heart tissue [2]; [7]) is given as 1, the Arrhythmia (heart tissue [3]; [8]) is given as 1 and the “Myocardial Necrosis” value (heart tissue [4]; [8]) is given as −1. For the same compound, the “Heart Failure” value (heart tissue [5]) was 1 and the “Andrenergic Agonist” value (heart tissue [6]) was −1.
In the case of NCCc1ccc(O)c(O)c1 [Dopamine], the “Vasculature Agent” value (heart tissue [1]) is listed as −1, the General (heart tissue [2]; [7]) is listed as 1 and the Arrhythmia (heart tissue [3]; [8]) is listed as 1. The “Myocardial Necrosis” value (heart tissue [4]; [8]) was −1 and the “Andrenergic Agonist” value (heart tissue [6]) was 1.
For CNC[C@H](O)c1ccc(O)c(O)c1 [Epinephrine], the “Vasculature Agent” value (heart tissue [1]) is given as −1, the General (heart tissue [2]; [7]) is given as 1 and the Arrhythmia (heart tissue [3]; [8]) is given as 1. For the same compound, the “Myocardial Necrosis” value (heart tissue [4]; [8]) was 1, the “Heart Failure” value (heart tissue [5]) was −1 and the “Andrenergic Agonist” value (heart tissue [6]) was 1.
For COc1cccc2c1C(=O)c1c(O)c3c(c(O)c1C2=O)C[C@@](O)(C(=O)CO)C[C@@H]3O[C@H]1C[C@H](N)[C@@H](O)[C@H](C)O1 [Epirubicin], the “Vasculature Agent” value (heart tissue [1]) is listed as −1, the General (heart tissue [2]; [7]) is listed as 1 and the Arrhythmia (heart tissue [3]; [8]) is listed as 1. For the same compound, the “Myocardial Necrosis” value (heart tissue [4]; [8]) was −1, the “Heart Failure” value (heart tissue [5]) was 1 and the “Andrenergic Agonist” value (heart tissue [6]) was −1.
In the case of NC(N)=Nc1nc(CSCCC(N)=NS(N)(=O)=O)cs1 [Famotidine], the “Vasculature Agent” value (heart tissue [1]) is given as −1, the General (heart tissue [2]; [7]) is given as 1 and the Arrhythmia (heart tissue [3]; [8]) is given as 1. For the same compound, the “Myocardial Necrosis” value (heart tissue [4]; [8]) was −1, the “Heart Failure” value (heart tissue [5]) was −1 and the “Andrenergic Agonist” value (heart tissue [6]) was −1.
For NNc1nncc2ccccc12 [Hydralazine], the “Vasculature Agent” value (heart tissue [1]) is listed as 1, the General (heart tissue [2]; [7]) is listed as 1 and the Arrhythmia (heart tissue [3]; [8]) is listed as 1. The “Myocardial Necrosis” value (heart tissue [4]; [8]) was 1, the “Heart Failure” value (heart tissue [5]) was −1 and the “Andrenergic Agonist” value (heart tissue [6]) was −1.
In the case of CC(C)NCC(O)c1ccc(O)c(O)c1 (stereo not shown) [Isoproterenol], the General (heart tissue [2]; [7]) is listed as 1, the Arrhythmia (heart tissue [3]; [8]) is listed as 1 and the “Myocardial Necrosis” value (heart tissue [4]; [8]) is listed as 1. For the same compound, the “Andrenergic Agonist” value (heart tissue [6]) was 1.
In the case of Nc1cc(N2CCCCC2)nc(N)[n+]1[O-] [Minoxidil], the “Vasculature Agent” value (heart tissue [1]) is given as 1, the General (heart tissue [2]; [7]) is given as 1 and the Arrhythmia (heart tissue [3]; [8]) is given as 1. The “Myocardial Necrosis” value (heart tissue [4]; [8]) was 1, the “Heart Failure” value (heart tissue [5]) was 1 and the “Andrenergic Agonist” value (heart tissue [6]) was −1.
For C[C@H]1C(=O)O[C@@H]2CCN3CC=C(COC(=O)[C@](C)(O)[C@]1(C)O)[C@H]23 [Monocrotaline], the General (heart tissue [2]; rat, in vivo) is given as 1, the Arrhythmia (heart tissue [3]; rat, in vivo) is given as −1 and the “Myocardial Necrosis” value (heart tissue [4]; rat, in vivo) is given as −1.
In the case of NC[C@H](O)c1ccc(O)c(O)c1 [Norephinephrine], the General (heart tissue [2]; [7]) is listed as 1, the Arrhythmia (heart tissue [3]; [8]) is listed as 1 and the “Myocardial Necrosis” value (heart tissue [4]; [8]) is listed as 1. For the same compound, the “Heart Failure” value (heart tissue [5]) was −1 and the “Andrenergic Agonist” value (heart tissue [6]) was 1.
In the case of Fc1ccc([C@@H]2CCNC[C@H]2COc2ccc3c(c2)OCO3)cc1 [Paroxetine], the General (heart tissue [2]; [7]) is given as 1, the Arrhythmia (heart tissue [3]; [8]) is given as 1 and the “Myocardial Necrosis” value (heart tissue [4]; [8]) is given as −1.
In the case of N=C(N)c1ccc(OCCCCCOc2ccc(C(=N)N)cc2)cc1 [Pentamidine], the General (heart tissue [2]; [7]) is given as 1, the Arrhythmia (heart tissue [3]; [8]) is given as 1 and the “Myocardial Necrosis” value (heart tissue [4]; [8]) is given as −1. For the same compound, the “Heart Failure” value (heart tissue [5]) was −1.
In the case of CC(N)C(O)c1ccccc1 (stereo not shown) [Phenylpropanolamine], the General (heart tissue [2]; [7]) is listed as 1, the Arrhythmia (heart tissue [3]; [8]) is listed as 1 and the “Heart Failure” value (heart tissue [5]) is listed as −1.
For CN(CCOc1ccc(CC2SC(=O)NC2=O)cc1)c1ccccn1 (stereo not shown) [Rosiglitazone], the General (heart tissue [2]; [7]) is listed as 1 and the “Heart Failure” value (heart tissue [5]) is listed as 1.
In the case of Cn1nnc2c(C(N)=O)ncn2c1=O [Temozolomide], the General (heart tissue [2]; [7]) is listed as −1, the Arrhythmia (heart tissue [3]; [8]) is listed as −1 and the “Myocardial Necrosis” value (heart tissue [4]; [8]) is listed as −1. For the same compound, the “Heart Failure” value (heart tissue [5]) was −1.
